In ChEMBL document CHEMBL5233245, “Monocarboxylate transporter 1 and 4 inhibitors as potential therapeutics for treating solid tumours: A review with structure-activity relationship insights” (Eur J Med Chem, 2020):

Target: T1, Monocarboxylate transporter 1 (Rattus norvegicus) (UniProt P53987)
T1 sequence (whole entry): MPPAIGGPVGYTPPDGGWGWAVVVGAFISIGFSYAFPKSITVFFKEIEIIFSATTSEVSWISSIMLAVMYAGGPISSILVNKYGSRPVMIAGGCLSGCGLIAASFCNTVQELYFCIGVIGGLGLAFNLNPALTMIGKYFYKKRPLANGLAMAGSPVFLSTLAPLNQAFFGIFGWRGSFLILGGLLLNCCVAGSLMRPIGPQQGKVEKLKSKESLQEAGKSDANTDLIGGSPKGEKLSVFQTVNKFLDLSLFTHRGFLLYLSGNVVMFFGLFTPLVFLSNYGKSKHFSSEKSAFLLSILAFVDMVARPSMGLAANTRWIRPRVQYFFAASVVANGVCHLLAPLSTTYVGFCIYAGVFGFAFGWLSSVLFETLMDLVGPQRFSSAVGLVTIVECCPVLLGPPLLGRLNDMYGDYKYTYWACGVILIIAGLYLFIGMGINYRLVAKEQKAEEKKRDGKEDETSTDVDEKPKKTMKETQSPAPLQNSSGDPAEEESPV
Test: Inhibition of rat MCT1 expressed in human MDA-MB-231 cells in presence of [3H]-GHB by liquid scintillation spectroscopy analysis
Format: cell-based
Parameters: concentration or dose not given beside the values
Conditions: concentration not given here

## O=c1c(O)c(-c2ccc(O)c(O)c2)oc2cc(O)cc(O)c12
  inhibition: 87%

## O=c1c(O)c(-c2ccc(O)cc2O)oc2cc(O)cc(O)c12
  inhibition: 100%

## O=c1cc(-c2ccc(O)cc2)oc2cc(O)cc(O)c12
  inhibition: 50%

## O=c1c(O)c(-c2ccc(O)c(O)c2)oc2cc(O)ccc12
  inhibition: 93%

## O=c1cc(-c2ccc(O)c(O)c2)oc2cc(O)cc(O)c12
  inhibition: 100%

## COc1ccc(-c2cc(=O)c3c(O)cc(O)cc3o2)cc1O
  inhibition: 49%
